According to PMC4965013, “Open Source Drug Discovery with the Malaria Box Compound Collection for Neglected Diseases and Beyond” (PLoS Pathogens, 2016):

Key:
[1] = test system: P. falciparum 3D7 trophozoites; experiment: Metabolomic fingerprint profiling LC-MS; type: cell-based, Plasmodium falciparum; parameters: UDP-D-glucose / ADP-D-glucose: unit not given here
P. falciparum = experiment: EC50 listed in S2 Table Metabolomics (used to set the concentration tested); type: cell-based; conditions: Plasmodium falciparum; EC50 used for Factor_XEC50 in metabolomics; read-out: EC50_nM
[2] = metabolite level change after treatment

- EC50 (P. falciparum): 78.2 nM
Compound: COc1cc(OC)c(N(C)C(=O)c2cc3c(s2)-c2ccccc2S(=O)(=O)C3)cc1Cl [MMV006427]
- Acetyllysine ([1]; S2 Table Metabolomics, metabolite Acetyllysine): -3.0678
- N-acetyl-L-ornithine ([1]; S2 Table Metabolomics, metabolite N-acetyl-L-ornithine): -2.077
- N-carbamoyl-L-aspartate ([1]; S2 Table Metabolomics, metabolite N-carbamoyl-L-aspartate): -3.4047
- NADPH ([1]; S2 Table Metabolomics, metabolite NADPH): -0.4646
- dAMP ([1]; S2 Table Metabolomics, metabolite dAMP): 2.306
- dCMP ([1]; S2 Table Metabolomics, metabolite dCMP): 1.395
- dTDP ([1]; S2 Table Metabolomics, metabolite dTDP): 3.378
- dTMP ([1]; S2 Table Metabolomics, metabolite dTMP): 4.553
- dTTP ([1]; S2 Table Metabolomics, metabolite dTTP): 1.85
- dihydroorotate ([1]; S2 Table Metabolomics, metabolite dihydroorotate): -2.575
- orotate ([1]; S2 Table Metabolomics, metabolite orotate): 0.4264
- DLH ([1]; S2 Table Metabolomics, peptide DLH): -5.058
- DLS/SDL/SID ([1]; S2 Table Metabolomics, peptide DLS/SDL/SID): -4.1926
- PD ([1]; S2 Table Metabolomics, peptide PD): -1.1837
- PEE ([1]; S2 Table Metabolomics, peptide PEE): -3.666
- PVNF ([1]; S2 Table Metabolomics, peptide PVNF): -5.242
- 3-phosphoglycerate ([1]; metabolite 3-phosphoglycerate, S2 Table Metabolomics): 0.1517
- ADP-D-glucose ([1]; metabolite ADP-D-glucose, S2 Table Metabolomics): -0.124
- ATP ([1]; metabolite ATP, S2 Table Metabolomics): -1.807
- CDP ([1]; metabolite CDP, S2 Table Metabolomics, change in metabolite level after compound treatment): 0.8052
- D-sedoheptulose-1/7-phosphate ([1]; metabolite D-sedoheptulose-1/7-phosphate, S2 Table Metabolomics, change in metabolite level after compound treatment): -0.2773
- FAD ([1]; metabolite FAD, S2 Table Metabolomics): -1.0601
- GMP ([1]; metabolite GMP, S2 Table Metabolomics, change in metabolite level after compound treatment): -2.558
- NAD+ ([1]; metabolite NAD+, S2 Table Metabolomics): 0.783
- NADP+ ([1]; metabolite NADP+, S2 Table Metabolomics): 0.3092
- Octoluse Bisphosphate ([1]; metabolite Octoluse Bisphosphate, S2 Table Metabolomics, change in metabolite level after compound treatment): -2.061
- Pyroglutamic acid ([1]; metabolite Pyroglutamic acid, S2 Table Metabolomics): -0.1068
- UDP-D-glucose ([1]; metabolite UDP-D-glucose, S2 Table Metabolomics): 0.214
- UDP-D-glucuronate ([1]; metabolite UDP-D-glucuronate, S2 Table Metabolomics): -0.1144
- UDP-N-acetyl-glucosamine ([1]; metabolite UDP-N-acetyl-glucosamine, S2 Table Metabolomics): 0.3636
- UDP ([1]; metabolite UDP, S2 Table Metabolomics, change in metabolite level after compound treatment): 0.3063
- UMP ([1]; metabolite UMP, S2 Table Metabolomics, change in metabolite level after compound treatment): 0.3348
- UTP ([1]; metabolite UTP, S2 Table Metabolomics, change in metabolite level after compound treatment): -0.8427
- a-ketoglutarate ([1]; metabolite a-ketoglutarate, S2 Table Metabolomics): -0.411
- citrate/isocitrate ([1]; metabolite citrate/isocitrate, S2 Table Metabolomics, change in metabolite level after compound treatment): 0.0762
- cytidine ([1]; metabolite cytidine, S2 Table Metabolomics): 0.3423
- dATP ([1]; metabolite dATP, S2 Table Metabolomics): -0.2111
- dGMP/AMP ([1]; metabolite dGMP/AMP, S2 Table Metabolomics, change in metabolite level after compound treatment): -0.9855
- fumarate ([1]; metabolite fumarate, S2 Table Metabolomics, change in metabolite level after compound treatment): -0.3788
- glucose-1/6-phosphate ([1]; metabolite glucose-1/6-phosphate, S2 Table Metabolomics, change in metabolite level after compound treatment): -0.5462
- glycerate ([1]; metabolite glycerate, S2 Table Metabolomics, change in metabolite level after compound treatment): -0.8092
- guanine ([1]; metabolite guanine, S2 Table Metabolomics, change in metabolite level after compound treatment): 0.1326
- guanosine ([1]; metabolite guanosine, S2 Table Metabolomics, change in metabolite level after compound treatment): 0.04127
- hypoxanthine ([1]; metabolite hypoxanthine, S2 Table Metabolomics): -0.06662
- indole ([1]; metabolite indole, S2 Table Metabolomics): -0.3106
- inosine ([1]; metabolite inosine, S2 Table Metabolomics, change in metabolite level after compound treatment): 0.06183
- 2_3-Diphosphoglyceric acid [1, 2]: -0.9034
- 4-phosphopantothenate [1, 2]: -0.1012
- 6-phospho-D-gluconate [1, 2]: -0.09619
- FMN [1, 2]: 0.1283
- IMP [1, 2]: 0.7504
- Pyrophosphate [1, 2]: -1.05
- Sedoheptoluse bisphosphate [1, 2]: -0.7918
- cyclic-AMP [1, 2]: -0.9224
- glutathione disulfide [1, 2]: -0.1859
- lactate [1, 2]: -1.014
- myo-inositol [1, 2]: -1.304
- nicotinate ([1]; metabolite nicotinate, S2 Table Metabolomics): 0.5771
- ornithine ([1]; metabolite ornithine, S2 Table Metabolomics): 0.02692
- phosphoenolpyruvate ([1]; metabolite phosphoenolpyruvate, S2 Table Metabolomics): 0.2074
- pyruvate ([1]; metabolite pyruvate, S2 Table Metabolomics, change in metabolite level after compound treatment): -1.66
- ribose-phosphate ([1]; metabolite ribose-phosphate, S2 Table Metabolomics): -0.6233
- sarcosine/alanine ([1]; metabolite sarcosine/alanine, S2 Table Metabolomics, change in metabolite level after compound treatment): -1.711
- sn-glycerol-3-phosphate ([1]; metabolite sn-glycerol-3-phosphate, S2 Table Metabolomics): 0.334
- succinate/methylmalonic acid ([1]; metabolite succinate/methylmalonic acid, S2 Table Metabolomics, change in metabolite level after compound treatment): 0.04426
- uridine ([1]; metabolite uridine, S2 Table Metabolomics, change in metabolite level after compound treatment): -0.5041
- xanthosine ([1]; metabolite xanthosine, S2 Table Metabolomics, change in metabolite level after compound treatment): -1.485
